In the series the target is FUS. The series is described as follows: mouse, dose not given. As to conditions: ASO.

HELM strings list units from the 5' end as sugar, base in round brackets, then linkage (d deoxyribose, r ribose, m 2'-O-methyl, p phosphodiester). Strings are as the collection lists them; they lack the last nucleoside at the 3' end of the tested compound. [moe] = 2'-O-(2-methoxyethyl) (MOE); [sp] = phosphorothioate linkage; [m5C] = 5-methylcytosine

Consider one substance from the OligoGym collection.

Consider “RNA1{[moe]([m5C])[sp].[moe]([m5C])p.[moe](G)p.[moe](T)p.[moe](G)p.d(T)[sp].d(T)[sp].d(G)[sp].d(T)[sp].d(T)[sp].d(T)[sp].d([m5C])[sp].d([m5C])[sp].d([m5C])[sp].d([m5C])[sp].[moe](G)p.[moe](A)p.[moe](A)[sp].[moe](A)}$$$$ (last 3' nucleoside missing)”, for which the 3 h FOB score was found to be 1 score 0-7.
